According to PubChem BioAssay AID330 (DTP/NCI, 2004):
“And” between values parts separate entries of the source, which are not always exact repeats. Identical values can stand only once. Inconclusive results and toxic doses are left out. Rule for the calls: active = survival T/C of 150% or more; inactive = T/C below 125% in these data.

Test system: P388 leukemia ip, CD2F1 mice, survival T/C
Experiment: NCI In Vivo Anticancer Drug Screen. Data for tumor model P388 Leukemia (intraperitoneal) in CD2F1 (CDF1) mice
Conditions: endpoint: median survival time, higher = longer survival
Outline: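 Mice carrying the transplanted tumor received test compound or vehicle. Survival was recorded in each group, and the value is the treated-group measurement divided by that of the vehicle-treated control group.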

[1] = dose: 60.0 mg/kg/injection, schedule: Q01DX005 (ip), vehicle: saline
[2] = dose: 50.0 mg/kg/injection, schedule: Q01DX005 (ip), vehicle: saline with Tween-80
[3] = dose: 100.0 mg/kg/injection, schedule: Q01DX005 (ip), vehicle: saline with Tween-80
[4] = dose: 200.0 mg/kg/injection, schedule: Q01DX005 (ip), vehicle: saline with Tween-80
[5] = dose: 25.0 mg/kg/injection, schedule: Q01DX005 (ip), vehicle: saline with Tween-80

Measured: T/C

COC(=O)c1cc(=O)n2cnc3c(ncn3C3OC(CO)C(O)C3O)c2c1 (stereo unspecified)
inactive: dose: 100.0 mg/kg/injection, schedule: Q04DX003 (ip), vehicle: saline 98 % of control | dose: 200.0 mg/kg/injection, schedule: Q04DX003 (ip), vehicle: saline 100 % of control | dose: 400.0 mg/kg/injection, schedule: Q04DX003 (ip), vehicle: saline 100 % of control

[N-]=[N+]=N/C=C/C(=O)OCCBr
inactive: dose: 15.0 mg/kg/injection, schedule: Q01DX005 (ip), vehicle: saline 97 % of control | dose: 30.0 mg/kg/injection, schedule: Q01DX005 (ip), vehicle: saline 103 % of control | [1] 102 % of control and 97 % of control

[N-]=[N+]=NCCN(Cc1ccccc1)Cc1ccccc1
inactive: [2] 104 % of control | [3] 104 % of control | [4] 114 % of control

CSc1ccc(N2C(=O)CSC2=O)cc1
inactive: dose: 50.0 mg/kg/injection, schedule: Q01DX009 (ip), vehicle: saline with Tween-80 106 % of control | dose: 100.0 mg/kg/injection, schedule: Q01DX009 (ip), vehicle: saline with Tween-80 114 % of control | dose: 200.0 mg/kg/injection, schedule: Q01DX009 (ip), vehicle: saline with Tween-80 109 % of control

CS(=O)(=O)N1OC1c1ccccc1 (stereo unspecified)
inactive: dose: 60.0 mg/kg/injection, schedule: Q01DX005 (ip), vehicle: Klucel (hydroxypropylcellulose) (HPC) 95 % of control | dose: 120.0 mg/kg/injection, schedule: Q01DX005 (ip), vehicle: Klucel (hydroxypropylcellulose) (HPC) 100 % of control

O=c1c2ncn(C3OC(CO)C(O)C3O)c2nc2n(C3OC(CO)C(O)C3O)cnn12 (stereo unspecified)
inactive: [1] 109 % of control | dose: 120.0 mg/kg/injection, schedule: Q01DX005 (ip), vehicle: saline 117 % of control | dose: 240.0 mg/kg/injection, schedule: Q01DX005 (ip), vehicle: saline 122 % of control

CCN(CC)Cc1cc(Nc2cc(Cl)c3ccc(N(C)C)cc3n2)ccc1O
inactive: dose: 12.5 mg/kg/injection, schedule: Q01DX009 (ip), vehicle: saline 110 % of control | dose: 25.0 mg/kg/injection, schedule: Q01DX009 (ip), vehicle: saline 110 % of control | dose: 50.0 mg/kg/injection, schedule: Q01DX009 (ip), vehicle: saline 109 % of control and 110 % of control

N#CC(c1ccccc1)c1cnccn1 (stereo unspecified)
inactive: [5] 102 % of control | [2] 100 % of control

Clc1ccc(CCNCc2ccc(Cl)cc2)cc1
inactive: dose: 12.5 mg/kg/injection, schedule: Q01DX005 (ip), vehicle: saline with Tween-80 87 % of control | [5] 97 % of control | [2] 106 % of control and 97 % of control

CC1=Nc2cc(N)nn2C(=O)C1
inactive: [5] 93 % of control | [2] 96 % of control | [3] 102 % of control | [4] 93 % of control

CCn1c(=O)c2[nH]c(SC)nc2n(CC)c1=O
inactive: dose: 16.0 mg/kg/injection, schedule: Q01DX009 (ip), vehicle: Klucel (hydroxypropylcellulose) (HPC) 105 % of control | dose: 32.0 mg/kg/injection, schedule: Q01DX009 (ip), vehicle: Klucel (hydroxypropylcellulose) (HPC) 107 % of control | dose: 50.0 mg/kg/injection, schedule: Q01DX009 (ip), vehicle: Klucel (hydroxypropylcellulose) (HPC) 116 % of control | dose: 64.0 mg/kg/injection, schedule: Q01DX009 (ip), vehicle: Klucel (hydroxypropylcellulose) (HPC) 104 % of control | dose: 100.0 mg/kg/injection, schedule: Q01DX009 (ip), vehicle: Klucel (hydroxypropylcellulose) (HPC) 111 % of control | dose: 200.0 mg/kg/injection, schedule: Q01DX009 (ip), vehicle: Klucel (hydroxypropylcellulose) (HPC) 100 % of control

CC(C[N+](C)(C)C)OC(N)=O (stereo unspecified)
inactive: dose: 50.0 mg/kg/injection, schedule: Q01DX001 (ip), vehicle: saline 101 % of control | dose: 100.0 mg/kg/injection, schedule: Q01DX001 (ip), vehicle: saline 100 % of control | dose: 200.0 mg/kg/injection, schedule: Q01DX001 (ip), vehicle: saline 108 % of control

NS(=O)(=O)c1ccc(NC(=O)C2C(=O)N(c3ccc(S(N)(=O)=O)cc3)C(=O)/C2=N/O)cc1 (stereo unspecified)
inactive: dose: 60.0 mg/kg/injection, schedule: Q01DX005 (ip), vehicle: saline with Tween-80 111 % of control | dose: 120.0 mg/kg/injection, schedule: Q01DX005 (ip), vehicle: saline with Tween-80 110 % of control | dose: 240.0 mg/kg/injection, schedule: Q01DX005 (ip), vehicle: saline with Tween-80 101 % of control
